Results taken from the NIST ThermoML archive (doi:10.1021/acs.jced.7b00782).
Numbers after ± are expanded uncertainties.

Details: Closed cell (Static) method

| SMILES | vapor or sublimation pressure (135.8 K, Liquid) [kPa] | vapor or sublimation pressure (146.22 K, Liquid) [kPa] | vapor or sublimation pressure (105.89 K, Liquid) [kPa] | vapor or sublimation pressure (127.32 K, Liquid) [kPa] | vapor or sublimation pressure (105.89 K, Crystal) [kPa] |
| --- | --- | --- | --- | --- | --- |
| [Ar] [argon] | 2605.6 ± 58 | 4028.9 ± 58 | – | – | – |
| [C-]#[O+] [carbon monoxide] | – | – | 830 ± 40 | 2682 ± 40 | – |
| [N]=O [nitrogen oxide (NO)] | 410.9 ± 26 | 987.8 ± 30 | – | 188.3 ± 23 | 13.6 ± 20 |
